Starred links: 1 amine or outer side, 2 acyl side, 3 side chain; linkers in the order of their positions; H or OH if unused. Non-standard residues stand in square brackets, D forms with d. Residues, ends and D or L forms follow the SMILES beside them. Groups on a side chain read outwards from the residue. *: point of attachment. C20 diacid = O=C(O)CCCCCCCCCCCCCCCCCCC(=O)*; C18 diacid = O=C(O)CCCCCCCCCCCCCCCCC(=O)*; C17 diacid = O=C(O)CCCCCCCCCCCCCCCC(=O)*; γGlu = O=C(O)[C@H](CCC(=O)[*:2])N[*:1]; NMeY = CN[C@@H](Cc1ccc(O)cc1)C(=O)O; AEEA = NCCOCCOCC(=O)O; Aib = CC(C)(N)C(=O)O
Experiment: physchem
Outline: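 Solubility at pH 7.4 determined by stepwise addition of 200 mM phosphate buffer in 100 μL increments to 3 mg peptide, mixing briefly each time, until no insoluble material remained, then measured by liquid chromatography.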

[1] = pH 7.4, aqueous buffer, pH 7.4 Phosphate Buffer - Solubility, 200 mM Phosphate buffer pH 7.4

| SMILES | solubility (pH 7.4) [mg/mL] | solubility (pH 7.4, aqueous buffer) [mg/mL] | solubility [1] [mg/mL] | solubility (pH 7.4, solubility in phosphate buffer at pH 7.4, 200 mM phosphate buffer pH 7.4) [mg/mL] |
| --- | --- | --- | --- | --- |
| CC[C@H](C)[C@H](NC(=O)[C@H](CO)NC(=O)[C@H](Cc1ccc(O)cc1)NC(=O)[C@H](CC(=O)O)NC(=O)[C@H](CO)NC(=O)[C@@H](NC(=O)[C@H](Cc1ccccc1)NC(=O)[C@@H](NC(=O)CNC(=O)[C@H](CCC(=O)O)NC(=O)C(C)(C)NC(=O)[C@@H](N)Cc1ccc(O)cc1)[C@@H](C)O)[C@@H](C)CC)C(=O)N[C@@H](C)C(=O)NC(C)(C)C(=O)N[C@@H](CC(=O)O)C(=O)N[C@@H](CCCCN)C(=O)N[C@@H](C)C(=O)N[C@@H](C)C(=O)N[C@@H](CCC(N)=O)C(=O)N[C@@H](C)C(=O)N[C@@H](CCCCNC(=O)COCCOCCNC(=O)COCCOCCNC(=O)CC[C@H](NC(=O)CC[C@H](NC(=O)CCCCCCCCCCCCCCCCC(=O)O)C(=O)O)C(=O)O)C(=O)N[C@@H](Cc1ccccc1)C(=O)N[C@H](C(=O)N[C@@H](CCC(=O)O)C(=O)N[C@@H](Cc1c[nH]c2ccccc12)C(=O)N[C@@H](CC(C)C)C(=O)N[C@@H](CC(C)C)C(=O)N[C@@H](C)C(=O)N[C@@H](CCC(N)=O)C(=O)N[C@@H](CCCNC(=N)N)C(=O)NCC(=O)O)C(C)C [Compound 158] (H-Y[Aib]EGTFISDYSIA[Aib]DKAAQAK([AEEA-AEEA-γGlu-γGlu-C18 diacid])FVEWLLAQRG-OH) | ≥ 15 | ≥ 30 |  |  |
| CC[C@H](C)[C@H](NC(=O)[C@H](Cc1ccccc1)NC(=O)[C@@H](NC(=O)CNC(=O)[C@H](CCC(=O)O)NC(=O)C(C)(C)NC(=O)[C@H](Cc1ccc(O)cc1)NC)[C@@H](C)O)C(=O)N[C@@H](CO)C(=O)N[C@@H](CC(=O)O)C(=O)N[C@@H](Cc1ccc(O)cc1)C(=O)N[C@@H](CO)C(=O)N[C@H](C(=O)NC(C)(C)C(=O)N[C@@H](CC(C)C)C(=O)N[C@@H](CC(=O)O)C(=O)N[C@@H](CCCNC(=N)N)C(=O)NC(C)(C)C(=O)N[C@@H](C)C(=O)N[C@@H](CCC(N)=O)C(=O)NC(C)(C)C(=O)N[C@@H](CCCCNC(=O)COCCOCCNC(=O)COCCOCCNC(=O)CC[C@H](NC(=O)CC[C@H](NC(=O)CCCCCCCCCCCCCCCC(=O)O)C(=O)O)C(=O)O)C(=O)N[C@@H](Cc1ccccc1)C(=O)N[C@H](C(=O)N[C@@H](CC(N)=O)C(=O)N[C@@H](Cc1c[nH]c2ccccc12)C(=O)N[C@@H](CC(C)C)C(=O)N[C@@H](CC(C)C)C(=O)N[C@@H](C)C(=O)N[C@@H](CCC(N)=O)C(=O)N[C@@H](CO)C(=O)N1CCC[C@H]1C(=O)NCC(=O)O)C(C)C)[C@@H](C)CC [Compound 126] (H-[NMeY][Aib]EGTFISDYSI[Aib]LDR[Aib]AQ[Aib]K([AEEA-AEEA-γGlu-γGlu-C17 diacid])FVNWLLAQSPG-OH) | ≥ 15 | ≥ 30 |  |  |
| CC[C@H](C)[C@H](NC(=O)[C@H](CO)NC(=O)[C@H](Cc1ccc(O)cc1)NC(=O)[C@H](CC(=O)O)NC(=O)[C@H](CO)NC(=O)[C@@H](NC(=O)[C@H](Cc1ccccc1)NC(=O)[C@@H](NC(=O)CNC(=O)[C@H](CCC(=O)O)NC(=O)C(C)(C)NC(=O)[C@H](Cc1ccc(O)cc1)NC)[C@@H](C)O)[C@@H](C)CC)C(=O)N[C@@H](C)C(=O)N[C@@H](CC(C)C)C(=O)N[C@@H](CC(=O)O)C(=O)N[C@@H](CCCNC(=N)N)C(=O)NC(C)(C)C(=O)N[C@@H](C)C(=O)N[C@@H](CCC(N)=O)C(=O)NC(C)(C)C(=O)N[C@@H](CCCCNC(=O)COCCOCCNC(=O)COCCOCCNC(=O)CC[C@H](NC(=O)CC[C@H](NC(=O)CCCCCCCCCCCCCCCCC(=O)O)C(=O)O)C(=O)O)C(=O)N[C@@H](Cc1ccccc1)C(=O)N[C@H](C(=O)N[C@@H](CC(N)=O)C(=O)N[C@@H](Cc1c[nH]c2ccccc12)C(=O)N[C@@H](CC(C)C)C(=O)N[C@@H](CC(C)C)C(=O)N[C@@H](C)C(=O)N[C@@H](CCC(N)=O)C(=O)N[C@@H](CO)C(=O)N1CCC[C@H]1C(=O)NCC(=O)O)C(C)C [Compound 86] (H-[NMeY][Aib]EGTFISDYSIALDR[Aib]AQ[Aib]K([AEEA-AEEA-γGlu-γGlu-C18 diacid])FVNWLLAQSPG-OH) | ≥ 15 | ≥ 30 |  |  |
| CC[C@H](C)[C@H](NC(=O)[C@H](CO)NC(=O)[C@H](Cc1ccc(O)cc1)NC(=O)[C@H](CC(=O)O)NC(=O)[C@H](CO)NC(=O)[C@@H](NC(=O)[C@H](Cc1ccccc1)NC(=O)[C@@H](NC(=O)CNC(=O)[C@H](CCC(=O)O)NC(=O)C(C)(C)NC(=O)[C@H](Cc1ccc(O)cc1)NC)[C@@H](C)O)[C@@H](C)CC)C(=O)N[C@@H](C)C(=O)N[C@@H](CC(C)C)C(=O)N[C@@H](CC(=O)O)C(=O)N[C@@H](CCCNC(=N)N)C(=O)NC(C)(C)C(=O)N[C@@H](CCCCNC(=O)COCCOCCNC(=O)COCCOCCNC(=O)CC[C@H](NC(=O)CC[C@H](NC(=O)CCCCCCCCCCCCCCCC(=O)O)C(=O)O)C(=O)O)C(=O)N[C@@H](CCC(N)=O)C(=O)NC(C)(C)C(=O)N[C@@H](CC(N)=O)C(=O)N[C@@H](Cc1ccccc1)C(=O)N[C@H](C(=O)N[C@@H](CC(N)=O)C(=O)N[C@@H](Cc1c[nH]c2ccccc12)C(=O)N[C@@H](CC(C)C)C(=O)N[C@@H](CC(C)C)C(=O)N[C@@H](C)C(=O)N[C@@H](CCC(N)=O)C(=O)N[C@@H](CCCNC(=N)N)C(N)=O)C(C)C [Compound 256] (H-[NMeY][Aib]EGTFISDYSIALDR[Aib]K([AEEA-AEEA-γGlu-γGlu-C17 diacid])Q[Aib]NFVNWLLAQR-NH2) |  | ≥ 6 |  |  |
| CC[C@H](C)[C@H](NC(=O)[C@H](Cc1ccccc1)NC(=O)[C@@H](NC(=O)CNC(=O)[C@H](CCC(=O)O)NC(=O)C(C)(C)NC(=O)[C@H](Cc1ccc(O)cc1)NC)[C@@H](C)O)C(=O)N[C@@H](CO)C(=O)N[C@@H](CC(=O)O)C(=O)N[C@@H](Cc1ccc(O)cc1)C(=O)N[C@@H](CO)C(=O)N[C@H](C(=O)NC(C)(C)C(=O)N[C@@H](CC(C)C)C(=O)N[C@@H](CC(=O)O)C(=O)N[C@@H](CCCNC(=N)N)C(=O)NC(C)(C)C(=O)N[C@@H](C)C(=O)N[C@@H](CCC(N)=O)C(=O)NC(C)(C)C(=O)N[C@@H](CCCCNC(=O)COCCOCCNC(=O)CC[C@H](NC(=O)CC[C@H](NC(=O)CCCCCCCCCCCCCCCCC(=O)O)C(=O)O)C(=O)O)C(=O)N[C@@H](Cc1ccccc1)C(=O)N[C@H](C(=O)N[C@@H](CC(N)=O)C(=O)N[C@@H](Cc1c[nH]c2ccccc12)C(=O)N[C@@H](CC(C)C)C(=O)N[C@@H](CC(C)C)C(=O)N[C@@H](C)C(=O)N[C@@H](CCC(N)=O)C(=O)N[C@@H](CO)C(=O)N1CCC[C@H]1C(=O)N[C@@H](CO)C(=O)N[C@@H](CO)C(=O)NCC(=O)N[C@@H](C)C(=O)N1CCC[C@H]1C(=O)N1CCC[C@H]1C(=O)N1CCC[C@H]1C(=O)N[C@@H](CO)C(N)=O)C(C)C)[C@@H](C)CC [Compound 93] (H-[NMeY][Aib]EGTFISDYSI[Aib]LDR[Aib]AQ[Aib]K([AEEA-γGlu-γGlu-C18 diacid])FVNWLLAQSPSSGAPPPS-NH2) |  |  | ≥ 60 | ≥ 15 |
| CC[C@H](C)[C@H](NC(=O)[C@H](Cc1ccccc1)NC(=O)[C@@H](NC(=O)CNC(=O)[C@H](CCC(=O)O)NC(=O)C(C)(C)NC(=O)[C@H](Cc1ccc(O)cc1)NC)[C@@H](C)O)C(=O)N[C@@H](CO)C(=O)N[C@@H](CC(=O)O)C(=O)N[C@@H](Cc1ccc(O)cc1)C(=O)N[C@@H](CO)C(=O)N[C@H](C(=O)NC(C)(C)C(=O)N[C@@H](CCCCNC(=O)CNC(=O)CNC(=O)CNC(=O)CNC(=O)CNC(=O)CC[C@H](NC(=O)CCCCCCCCCCCCCCCCC(=O)O)C(=O)O)C(=O)N[C@@H](CC(=O)O)C(=O)N[C@@H](CCCNC(=N)N)C(=O)NC(C)(C)C(=O)N[C@@H](C)C(=O)N[C@@H](CCC(N)=O)C(=O)NC(C)(C)C(=O)N[C@@H](CC(N)=O)C(=O)N[C@@H](Cc1ccccc1)C(=O)N[C@H](C(=O)N[C@@H](CC(N)=O)C(=O)N[C@@H](Cc1c[nH]c2ccccc12)C(=O)N[C@@H](CC(C)C)C(=O)N[C@@H](CC(C)C)C(=O)N[C@@H](C)C(=O)N[C@@H](CCC(N)=O)C(=O)N[C@@H](CCCNC(=N)N)C(=O)N1CCC[C@H]1C(=O)N[C@@H](CO)C(=O)N[C@@H](CO)C(=O)NCC(=O)N[C@@H](C)C(=O)N1CCC[C@H]1C(=O)N1CCC[C@H]1C(=O)N1CCC[C@H]1C(=O)N[C@@H](CO)C(N)=O)C(C)C)[C@@H](C)CC [Compound 262] |  |  | < 6 |  |
| CC[C@H](C)[C@H](NC(=O)[C@H](Cc1ccccc1)NC(=O)[C@@H](NC(=O)CNC(=O)[C@H](CCC(=O)O)NC(=O)C(C)(C)NC(=O)[C@H](Cc1ccc(O)cc1)NC)[C@@H](C)O)C(=O)N[C@@H](CO)C(=O)N[C@@H](CC(=O)O)C(=O)N[C@@H](Cc1ccc(O)cc1)C(=O)N[C@@H](CO)C(=O)N[C@H](C(=O)NC(C)(C)C(=O)N[C@@H](CC(C)C)C(=O)N[C@@H](CC(=O)O)C(=O)N[C@@H](CCCNC(=N)N)C(=O)NC(C)(C)C(=O)N[C@@H](C)C(=O)N[C@@H](CCC(N)=O)C(=O)NC(C)(C)C(=O)N[C@@H](CCCCNC(=O)COCCOCCNC(=O)COCCOCCNC(=O)CC[C@H](NC(=O)CC[C@H](NC(=O)CCCCCCCCCCCCCCCCCCC(=O)O)C(=O)O)C(=O)O)C(=O)N[C@@H](Cc1ccccc1)C(=O)N[C@H](C(=O)N[C@@H](CC(N)=O)C(=O)N[C@@H](Cc1c[nH]c2ccccc12)C(=O)N[C@@H](CC(C)C)C(=O)N[C@@H](CC(C)C)C(=O)N[C@@H](C)C(=O)N[C@@H](CCC(N)=O)C(=O)N[C@@H](CCCCN)C(=O)NCC(=O)O)C(C)C)[C@@H](C)CC [Compound 65] (H-[NMeY][Aib]EGTFISDYSI[Aib]LDR[Aib]AQ[Aib]K([AEEA-AEEA-γGlu-γGlu-C20 diacid])FVNWLLAQKG-OH) | ≥ 15 | ≥ 30 |  |  |

From patent US20230143604A1, “QW DOSING OF GIP RECEPTOR AGONIST PEPTIDE COMPOUNDS AND USES THEREOF” (TAKEDA PHARMACEUTICAL COMPANY LIMITED, priority 2020, published 2023)
